Reference: PubChem BioAssay (NCI)
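Tested at 5 concentrations; 48 h exposure; 96-well plates; endpoints linearly interpolated, else capped at highest concentration. At the GI50, growth is halved. TGI is the concentration that stops growth completely.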

Experiments:
Assay in all cases: NCI tumour cell line growth inhibition, 48 h
786-0 renal = test system: 786-0 renal
LOX IMVI melanoma = test system: LOX IMVI melanoma
SK-OV-3 ovarian = test system: SK-OV-3 ovarian
COLO 205 colon = test system: COLO 205 colon
UO-31 renal = test system: UO-31 renal
HT29 colon = test system: HT29 colon
SR leukemia = test system: SR leukemia
SK-MEL-2 melanoma = test system: SK-MEL-2 melanoma
IGROV1 ovarian = test system: IGROV1 ovarian
KM12 colon = test system: KM12 colon
M14 melanoma = test system: M14 melanoma
NCI-H460 lung = test system: NCI-H460 lung
U251 CNS = test system: U251 CNS
UACC-62 melanoma = test system: UACC-62 melanoma
PC-3 prostate = test system: PC-3 prostate
RXF 393 renal = test system: RXF 393 renal
SW-620 colon = test system: SW-620 colon
BT-549 breast = test system: BT-549 breast
MDA-MB-435 = test system: MDA-MB-435
NCI/ADR-RES ovarian = test system: NCI/ADR-RES ovarian
HCC-2998 colon = test system: HCC-2998 colon
A498 renal = test system: A498 renal
SNB-19 CNS = test system: SNB-19 CNS
NCI-H23 lung = test system: NCI-H23 lung
HL-60(TB) leukemia = test system: HL-60(TB) leukemia
OVCAR-8 ovarian = test system: OVCAR-8 ovarian
SF-539 CNS = test system: SF-539 CNS
SN12C renal = test system: SN12C renal
NCI-H522 lung = test system: NCI-H522 lung
SK-MEL-28 melanoma = test system: SK-MEL-28 melanoma
OVCAR-5 ovarian = test system: OVCAR-5 ovarian
HCT-116 colon = test system: HCT-116 colon
HS 578T breast = test system: HS 578T breast
SK-MEL-5 melanoma = test system: SK-MEL-5 melanoma
A549 NSCLC = test system: A549 NSCLC
T-47D breast = test system: T-47D breast
MDA-MB-231 breast = test system: MDA-MB-231 breast
MCF7 breast = test system: MCF7 breast
EKVX NSCLC = test system: EKVX NSCLC
UACC-257 melanoma = test system: UACC-257 melanoma
MOLT-4 leukemia = test system: MOLT-4 leukemia
SF-295 CNS = test system: SF-295 CNS
MALME-3M melanoma = test system: MALME-3M melanoma
TK-10 renal = test system: TK-10 renal
OVCAR-3 ovarian = test system: OVCAR-3 ovarian
HOP-92 NSCLC = test system: HOP-92 NSCLC
SF-268 CNS = test system: SF-268 CNS
RPMI-8226 leukemia = test system: RPMI-8226 leukemia
DU-145 prostate = test system: DU-145 prostate
K-562 leukemia = test system: K-562 leukemia
SNB-75 CNS = test system: SNB-75 CNS
OVCAR-4 ovarian = test system: OVCAR-4 ovarian
HOP-62 NSCLC = test system: HOP-62 NSCLC
ACHN renal = test system: ACHN renal
CCRF-CEM leukemia = test system: CCRF-CEM leukemia
NCI-H226 lung = test system: NCI-H226 lung

With `Cc1ccc(NC(=O)c2nc(S(C)=O)oc2-c2ccc(F)cc2)cc1Nc1nccc(-c2cccnc2)n1` (configuration not stated) as the compound, how does the GI50 (786-0 renal) read?
The GI50 was 2 µM.

And the TGI (786-0 renal)?
Its TGI is 3.55 µM.

And the GI50 (LOX IMVI melanoma)?
Its GI50 is 1.22 µM.

And the TGI (LOX IMVI melanoma)?
Its TGI is 2.65 µM.

What about the GI50 (SK-OV-3 ovarian) of the same compound?
The GI50 was 10.5 µM.

And the TGI (SK-OV-3 ovarian)?
Its TGI is 25.7 µM.

And the GI50 (COLO 205 colon)?
Its GI50 is 2.03 µM.

What about the TGI (COLO 205 colon) of the same compound?
The TGI was 4.41 µM.

What about the GI50 (UO-31 renal) of the same compound?
Its GI50 is 1.73 µM.

And the TGI (UO-31 renal)?
Its TGI is 3.14 µM.

And the GI50 (HT29 colon)?
Its GI50 is 1.82 µM.

And the TGI (HT29 colon)?
The TGI was 3.53 µM.

And the GI50 (SR leukemia)?
The GI50 was 0.726 µM.

What about the TGI (SR leukemia) of the same compound?
The TGI was 3.79 µM.

And the GI50 (SK-MEL-2 melanoma)?
The GI50 was 1.78 µM.

What about the TGI (SK-MEL-2 melanoma) of the same compound?
The TGI was 4.03 µM.

And the GI50 (IGROV1 ovarian)?
Its GI50 is 1.89 µM.

What about the TGI (IGROV1 ovarian) of the same compound?
Its TGI is 3.85 µM.

What about the GI50 (KM12 colon) of the same compound?
Its GI50 is 2.58 µM.

What about the TGI (KM12 colon) of the same compound?
The TGI was 7.14 µM.

And the GI50 (M14 melanoma)?
Its GI50 is 1.99 µM.

And the TGI (M14 melanoma)?
Its TGI is 4.34 µM.

What about the GI50 (NCI-H460 lung) of the same compound?
Its GI50 is 2.09 µM.

And the TGI (NCI-H460 lung)?
The TGI was 4.06 µM.

And the GI50 (U251 CNS)?
Its GI50 is 1.98 µM.

And the TGI (U251 CNS)?
The TGI was 3.57 µM.

What about the GI50 (UACC-62 melanoma) of the same compound?
The GI50 was 1.8 µM.

What about the TGI (UACC-62 melanoma) of the same compound?
Its TGI is 3.38 µM.

And the GI50 (PC-3 prostate)?
The GI50 was 2.25 µM.

What about the TGI (PC-3 prostate) of the same compound?
The TGI was 4.85 µM.

What about the GI50 (RXF 393 renal) of the same compound?
Its GI50 is 1.86 µM.

And the TGI (RXF 393 renal)?
Its TGI is 3.46 µM.

What about the GI50 (SW-620 colon) of the same compound?
Its GI50 is 2.1 µM.

What about the TGI (SW-620 colon) of the same compound?
Its TGI is 4.01 µM.

And the GI50 (BT-549 breast)?
Its GI50 is 1.74 µM.

What about the TGI (BT-549 breast) of the same compound?
Its TGI is 4.17 µM.

And the GI50 (MDA-MB-435)?
The GI50 was 2.13 µM.

What about the TGI (MDA-MB-435) of the same compound?
The TGI was 4.77 µM.

What about the GI50 (NCI/ADR-RES ovarian) of the same compound?
Its GI50 is 3.07 µM.

What about the TGI (NCI/ADR-RES ovarian) of the same compound?
The TGI was 11.9 µM.

And the GI50 (HCC-2998 colon)?
The GI50 was 3.91 µM.

What about the TGI (HCC-2998 colon) of the same compound?
Its TGI is 13 µM.

And the GI50 (A498 renal)?
The GI50 was 7.19 µM.

What about the TGI (A498 renal) of the same compound?
The TGI was 20.2 µM.

What about the GI50 (SNB-19 CNS) of the same compound?
Its GI50 is 2.15 µM.

And the TGI (SNB-19 CNS)?
The TGI was 3.91 µM.

And the GI50 (NCI-H23 lung)?
Its GI50 is 1.83 µM.

And the TGI (NCI-H23 lung)?
Its TGI is 4.49 µM.

What about the GI50 (HL-60(TB) leukemia) of the same compound?
Its GI50 is 3.06 µM.

And the TGI (HL-60(TB) leukemia)?
The TGI was 10.9 µM.

What about the GI50 (OVCAR-8 ovarian) of the same compound?
The GI50 was 2.23 µM.

And the TGI (OVCAR-8 ovarian)?
The TGI was 4.64 µM.

And the GI50 (SF-539 CNS)?
Its GI50 is 1.77 µM.

What about the TGI (SF-539 CNS) of the same compound?
Its TGI is 3.71 µM.

And the GI50 (SN12C renal)?
The GI50 was 1.81 µM.

And the TGI (SN12C renal)?
Its TGI is 3.73 µM.

What about the GI50 (NCI-H522 lung) of the same compound?
Its GI50 is 1.05 µM.

What about the TGI (NCI-H522 lung) of the same compound?
Its TGI is 3.04 µM.

And the GI50 (SK-MEL-28 melanoma)?
The GI50 was 1.95 µM.

And the TGI (SK-MEL-28 melanoma)?
Its TGI is 3.97 µM.

What about the GI50 (OVCAR-5 ovarian) of the same compound?
The GI50 was 4.46 µM.

What about the TGI (OVCAR-5 ovarian) of the same compound?
The TGI was 30.1 µM.

What about the GI50 (HCT-116 colon) of the same compound?
The GI50 was 1.88 µM.

What about the TGI (HCT-116 colon) of the same compound?
Its TGI is 3.57 µM.

And the GI50 (HS 578T breast)?
Its GI50 is 2.96 µM.

What about the TGI (HS 578T breast) of the same compound?
The TGI was 8.94 µM.

And the GI50 (SK-MEL-5 melanoma)?
The GI50 was 1.84 µM.

What about the TGI (SK-MEL-5 melanoma) of the same compound?
The TGI was 3.59 µM.

What about the GI50 (A549 NSCLC) of the same compound?
Its GI50 is 5.15 µM.

And the TGI (A549 NSCLC)?
The TGI was 17.3 µM.

What about the GI50 (T-47D breast) of the same compound?
The GI50 was 1.73 µM.

What about the TGI (T-47D breast) of the same compound?
Its TGI is 3.68 µM.

And the GI50 (MDA-MB-231 breast)?
Its GI50 is 1.94 µM.

What about the TGI (MDA-MB-231 breast) of the same compound?
Its TGI is 4.38 µM.

And the GI50 (MCF7 breast)?
Its GI50 is 1.87 µM.

What about the TGI (MCF7 breast) of the same compound?
Its TGI is 3.86 µM.

And the GI50 (EKVX NSCLC)?
The GI50 was 2.62 µM.

What about the TGI (EKVX NSCLC) of the same compound?
The TGI was 6.65 µM.

What about the GI50 (UACC-257 melanoma) of the same compound?
The GI50 was 2.72 µM.

What about the TGI (UACC-257 melanoma) of the same compound?
Its TGI is 7.74 µM.

What about the GI50 (MOLT-4 leukemia) of the same compound?
Its GI50 is 2.17 µM.

What about the TGI (MOLT-4 leukemia) of the same compound?
Its TGI is 6.82 µM.

And the GI50 (SF-295 CNS)?
The GI50 was 15.1 µM.

And the TGI (SF-295 CNS)?
Its TGI is 29.2 µM.

And the GI50 (MALME-3M melanoma)?
Its GI50 is 1.34 µM.

What about the TGI (MALME-3M melanoma) of the same compound?
Its TGI is 2.89 µM.

And the GI50 (TK-10 renal)?
The GI50 was 2.82 µM.

And the TGI (TK-10 renal)?
The TGI was 6.25 µM.

And the GI50 (OVCAR-3 ovarian)?
Its GI50 is 1.87 µM.

What about the TGI (OVCAR-3 ovarian) of the same compound?
The TGI was 3.39 µM.

What about the GI50 (HOP-92 NSCLC) of the same compound?
The GI50 was 2.13 µM.

What about the TGI (HOP-92 NSCLC) of the same compound?
Its TGI is 4.69 µM.

And the GI50 (SF-268 CNS)?
The GI50 was 2.15 µM.

And the TGI (SF-268 CNS)?
The TGI was 4.61 µM.

And the GI50 (RPMI-8226 leukemia)?
The GI50 was 2.43 µM.

What about the TGI (RPMI-8226 leukemia) of the same compound?
Its TGI is 6.5 µM.

What about the GI50 (DU-145 prostate) of the same compound?
The GI50 was 1.91 µM.

What about the TGI (DU-145 prostate) of the same compound?
Its TGI is 3.75 µM.

What about the GI50 (K-562 leukemia) of the same compound?
Its GI50 is 0.454 µM.

And the TGI (K-562 leukemia)?
Its TGI is 3.3 µM.

And the GI50 (SNB-75 CNS)?
Its GI50 is 2.31 µM.

What about the TGI (SNB-75 CNS) of the same compound?
Its TGI is 5.43 µM.

And the GI50 (OVCAR-4 ovarian)?
The GI50 was 3.16 µM.

And the TGI (OVCAR-4 ovarian)?
Its TGI is 9 µM.

What about the GI50 (HOP-62 NSCLC) of the same compound?
Its GI50 is 2.95 µM.

What about the TGI (HOP-62 NSCLC) of the same compound?
Its TGI is 8.04 µM.

And the GI50 (ACHN renal)?
Its GI50 is 1.69 µM.

What about the TGI (ACHN renal) of the same compound?
Its TGI is 3.1 µM.

What about the GI50 (CCRF-CEM leukemia) of the same compound?
The GI50 was 1.58 µM.

And the TGI (CCRF-CEM leukemia)?
Its TGI is 6.83 µM.

And the GI50 (NCI-H226 lung)?
The GI50 was 3.84 µM.

What about the TGI (NCI-H226 lung) of the same compound?
The TGI was 25.8 µM.
